Data reported in US12509460B2 (Skyhawk Therapeutics, Inc., priority 2019, dated 2025).
Like-named read-outs stand apart in the source and are kept apart here.

Tests used:
[1] = system: SMN FL and SMN Δ7 in spinal muscular atrophy (SMA) patient fibroblasts (GM03813, Coriell); assay: Quantitative splicing assay (SMN), qPCR; format: cell-based, human; conditions: Homo sapiens, Fibroblast, 24 h, read-out: SMN2 Splicing FL EC50
Method: Spinal muscular atrophy (SMA) patient fibroblasts (GM03813, Coriell) are plated in 96-well plates at 50,000 cells/well. […] Treated cells are lysed and cDNA synthesized using the Fast Advanced Cells-to-Ct kit (Thermofisher A35378) according to the manufacturer's instructions. 2 μL of each cDNA are used in qPCR reactions. […] Reactions are run in a Quant Studio 6 qPCR instrument with default settings.

[2] = Quantitative splicing assay (HTT), qPCR; format: cell-based, human; conditions: Homo sapiens, GM04724, 24 h, GM04724 lymphoblasts, read-out: HTT Splicing: E49-50 EC50
How it was run: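 Patient lymphoblasts (50,000 cells/well) dosed immediately after plating for 24 h at 2.5 uM to 0.15 nM in 0.1% DMSO. Lysed, cDNA made directly from cells, and inclusion of the intron 49 cryptic exon quantified by TaqMan qPCR.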

[3] = system: SMN protein in spinal muscular atrophy (SMA) patient fibroblasts (GM03813, Coriell); assay: SMN protein assay, Mesoscale Discovery (MSD); format: cell-based, human; conditions: read-out: SMN2 protein EC50
How it was run: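 SMA patient fibroblasts (GM03813) seeded at 7000 cells/well and exposed to compound at 2.5 μM to 0.6 nM for 48 hours. Lysates assayed for SMN by MSD immunoassay, with absolute SMN amount calculated from a per-plate SMN standard curve (1 μg/ml to 19.5 pg/ml).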

[4] = system: mHTT protein in GM04724 (CAG 70/20) Huntington's disease patient lymphoblast cells; assay: mHTT protein assay, 2B7-MW1 assay via Mesoscale Discovery (MSD); format: cell-based, human
How it was run: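 Patient lymphoblasts treated 48 h with compound from 10 μM to 0.6 nM. mHTT quantified by MSD 2B7-MW1 immunoassay, whose signal depends on polyQ expansion and HTT size. Viability measured on a replicate plate by CellTiter Glo.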

MDR1 (P-gp) = assay: Blood-brain-barrier (BBB) penetration potential via MDCK-MDR1 permeability assay; conditions: dog; for Papp A→B at 120 min, 5 μM: MDCK-MDR1, pH 7.4, MDCK-MDR1: Papp A-B; for Papp B→A at 120 min, 5 μM: MDCK-MDR1, pH 7.4, MDCK-MDR1: Papp B-A
[5] = system: MDR1-MDCK cell monolayers; assay: as above
MDR1 = assay: as above; conditions: dog, MDCK-MDR1, pH 7.4, MDCK-MDR1: Efflux
[6] = SMA patient fibroblasts GM03813, 24 h, qPCR
[7] = SMA patient fibroblasts GM03813, 48 hours, MSD
[8] = GM04724 Huntington's disease patient lymphoblasts
[9] = SMA patient fibroblasts (GM03813)
[10] = SMA patient fibroblasts (GM03813), 48 hours
[11] = GM04724 (CAG 70/20) Huntington's disease patient lymphoblasts

Compound | EC50 [1, 6] [nM] | EC50 ([2]; qPCR) [nM] | EC50 [3, 7] [nM] | EC50 [4, 8] [nM] | Papp A→B at 120 min, 5 μM (MDR1 (P-gp); A-B direction) [×10⁻⁶ cm/s] | Papp B→A at 120 min, 5 μM (MDR1 (P-gp); B-A direction) [×10⁻⁶ cm/s] | MDCK-MDR1: % Recov A-B ([5]; A-B direction) [%] | MDCK-MDR1: % Recov B-A ([5]; B-A direction) [%] | efflux ratio at 120 min, 5 μM (MDR1; efflux ratio) | EC50 [1, 9] [nM] | EC50 [2] [nM] | EC50 [3, 10] [nM] | EC50 [4, 11] [nM] | Papp A→B at 120 min, 5 μM (MDR1 (P-gp); A-B) [×10⁻⁶ cm/s] | Papp B→A at 120 min, 5 μM (MDR1 (P-gp); B-A) [×10⁻⁶ cm/s] | MDCK-MDR1: % Recov A-B ([5]; A-B) [%] | MDCK-MDR1: % Recov B-A ([5]; B-A) [%] | efflux ratio at 120 min, 5 μM (MDR1)
CN(c1ccc(-c2ccc(-n3ccnc3)cc2O)nn1)[C@H]1C[C@@H]2CC[C@@H](N2)[C@H]1F [Compound 4B, 2-(6-(((1R,2R,3S,5S)-2-fluoro-8-azabicyclo[3.2.1]octan-3-yl)(methyl)amino)pyridazin-3-yl)-5-(1H-imidazol-1-yl)phenol] | 0.01 to 15 | 0.01 to 15 | 0.01 to 15 | 0.01 to 15 | 2.82 | 49.7 | 87 | 85 | 18 |  |  |  |  |  |  |  |  | 
CN(c1ccc(-c2ccc(-c3cc[nH]n3)cc2O)nn1)[C@H]1C[C@@H]2CC[C@@H](N2)[C@H]1F (single isomer, unassigned) [Compound 33B] | 16 to 50 | 0.01 to 15 | 0.01 to 15 | 0.01 to 15 | 1.75 | 53 | 87 | 82 | 30 |  |  |  |  |  |  |  |  | 
CN(c1ccc(-c2cc(F)c(-c3ccoc(=O)c3)cc2O)nn1)[C@@H]1C[C@H]2CC[C@H](N2)[C@@H]1F [Compound 17A, 4-(2-fluoro-4-(6-(((1S,2S,3R,5R)-2-fluoro-8-azabicyclo[3.2.1]octan-3-yl)(methyl)amino)pyridazin-3-yl)-5-hydroxyphenyl)-2H-pyran-2-one] | 0.01 to 15 | 0.01 to 15 | 0.01 to 15 | 0.01 to 15 | 2.08 | 39.2 | 57 | 81 | 19 |  |  |  |  |  |  |  |  | 
CN(c1ccc(-c2ccc(-n3nccn3)cc2O)nn1)[C@@H]1C[C@H]2CC[C@H](N2)[C@@H]1F [Compound 90A, 2-(6-(((1S,2S,3R,5R)-2-fluoro-8-azabicyclo[3.2.1]octan-3-yl)(methyl)amino)pyridazin-3-yl)-5-(2H-1,2,3-triazol-2-yl)phenol] | 0.01 to 15 | 0.01 to 15 | 0.01 to 15 | 0.01 to 15 | 6.97 | 22.5 | 41 | 69 | 3 |  |  |  |  |  |  |  |  | 
CN(c1ccc(-c2cc(F)c(-c3ccn(C)c(=O)c3)cc2O)nn1)[C@H]1C[C@@H]2CC[C@@H](N2)[C@H]1F [Compound 1B, 4-(2-fluoro-4-(6-(((1R,2R,3S,5S)-2-fluoro-8-azabicyclo[3.2.1]octan-3-yl)(methyl)amino)pyridazin-3-yl)-5-hydroxyphenyl)-1-methylpyridin-2(1H)-one] | 0.01 to 15 | 0.01 to 15 | 0.01 to 15 | 0.01 to 15 | 0.49 | 40.4 | 97 | 98 | 83 |  |  |  |  |  |  |  |  | 
CN(c1ccc(-c2cc3ncccc3cc2O)nn1)[C@@H]1C[C@H]2CCC[C@H](N2)[C@@H]1F [Compound 78A, 7-(6-(((1S,2S,3R,5R)-2-fluoro-9-azabicyclo[3.3.1]nonan-3-yl)(methyl)amino)pyridazin-3-yl)quinolin-6-ol] | 51 to 100 | 16 to 50 | 16 to 50 | 16 to 50 | 2.19 | 50.5 | 74 | 89 | 23 |  |  |  |  |  |  |  |  | 
Cc1cc(=O)c2cc(-c3ccc(N(C)[C@@H]4C[C@H]5CC[C@H](N5)[C@@H]4F)nn3)c(O)cc2o1 [Compound 50A, 6-(6-(((1S,2S,3R,5R)-2-fluoro-8-azabicyclo[3.2.1]octan-3-yl)(methyl)amino)pyridazin-3-yl)-7-hydroxy-2-methyl-4H-chromen-4-one] | 16 to 50 | 0.01 to 15 | 0.01 to 15 | 0.01 to 15 | 2.16 | 68.3 | 85 | 92 | 32 |  |  |  |  |  |  |  |  | 
CN(c1ccc(-c2cc3cnccc3cc2O)nn1)[C@H]1C[C@@H]2CCC[C@@H](N2)[C@H]1F [Compound 121B, 7-(6-(((1R,2R,3S,5S)-2-fluoro-9-azabicyclo[3.3.1]nonan-3-yl)(methyl)amino)pyridazin-3-yl)isoquinolin-6-ol] |  |  |  |  |  |  |  |  |  | 0.01 to 15 | 0.01 to 15 | 0.01 to 15 | 0.01 to 15 | 4.47 | 39.5 | 83 | 111 | 9
CN(c1ccc(-c2cc3c(=O)n(C)ccc3cc2O)nn1)[C@@H]1C[C@H]2CC[C@@H]([C@@H]1F)N2C [Compound 98A, 7-(6-(((1S,2S,3R,5R)-2-fluoro-8-methyl-8-azabicyclo[3.2.1]octan-3-yl)(methyl)amino)pyridazin-3-yl)-6-hydroxy-2-methylisoquinolin-1(2H)-one] |  |  |  |  |  |  |  |  |  | 101 to 500 | 101 to 500 | 16 to 50 | 101 to 500 | 4.11 | 64.7 | 86 | 105 | 16
Cc1nc2cc(O)c(-c3ccc(N(C)[C@@H]4C[C@H]5CC[C@H](N5)[C@@H]4F)nn3)cc2s1 [Compound 116A, 6-(6-(((1S,2S,3R,5R)-2-fluoro-8-azabicyclo[3.2.1]octan-3-yl)(methyl)amino)pyridazin-3-yl)-2-methylbenzo[d]thiazol-5-ol] |  |  |  |  |  |  |  |  |  | 51 to 100 | 16 to 50 | 0.01 to 15 | 0.01 to 15 | 4.39 | 42.9 | 86 | 88 | 10
Cc1cc(=O)c2cc(-c3ccc(N(C)[C@H]4C[C@@H]5CC[C@@H](N5)[C@H]4F)nn3)c(O)cc2o1 [Compound 50B, 6-(6-(((1R,2R,3S,5S)-2-fluoro-8-azabicyclo[3.2.1]octan-3-yl)(methyl)amino)pyridazin-3-yl)-7-hydroxy-2-methyl-4H-chromen-4-one] | 0.01 to 15 | 0.01 to 15 | 0.01 to 15 | 0.01 to 15 | 1.81 | 51.8 | 80 | 95 | 29 |  |  |  |  |  |  |  |  | 
